Experimental data taken from patent publication US9604982B2, “P2X7 modulators” (Janssen Pharmaceutica NV, priority 2013, dated 2017).
Where two headings read alike, the source gives them in different places.

Experiments:
Type in all cases: cell-based
P2X7 [1] = biological target: T1, P2X7 (Homo sapiens (Human), UniProt Q99572); experiment: P2X7 antagonism in human peripheral blood mononuclear cells (PBMCs), IL-1β release after LPS + Bz-ATP (ELISA); settings: 0.5 mM Bz-ATP; for remaining activity at 10 µM: read-out: PBMC 10 μM (% control); for PBMC 10 μM (% control): Table 3 (additional runs)
Method: Human blood was collected using a blood donor program. […] Cells were incubated for an additional 1.5 hours. […] Data are analyzed and graphed on Graphpad Prism 5. […] The IC50 for each compound is then uploaded into 3DX.

[2] = biological target: recombinant rat P2X7 channel (Rattus norvegicus (Rat), UniProt Q64663); experiment: Ca2+ flux (FLIPR) in 1321N1 cells expressing recombinant rat P2X7 channel; settings: Table 3 (additional runs); 250 μM BzATP
Method: (§1) P2X7 Antagonism in Recombinant Human P2X7 Cells or Recombinant Rat P2X7 Cells: (a) Ca^2+ Flux and (b) Radioligand Binding
(§2) (a) Ca^2+ flux: 1321N1 cells expressing the recombinant human or rat P2X7 channel was cultured in HyQ DME/(HyClone/Dulbecco's Modified Eagle Medium) high glucose supplemented with 10% Fetal Bovine Serum (FBS) and appropriate selection marker. Cells were seeded at a density of 25000 cells/well (96-well clear bottom black walled plates) in 100 μl volume/well. On the day of the experiment, cell plates were washed with assay buffer, containing (in mM): 130 NaCl, 2 KCl, 1 CaCl2, 1 MgCl2, 10 HEPES, 5 glucose; pH 7.40 and 300 mOs. After the wash, cells were loaded with the Calcium-4 dye (Molecular Device) and incubated in the dark for 60 minutes. Test compounds were prepared at 250× the test concentration in neat DMSO. Intermediate 96-well compound plates were prepared by transferring 1.2 μL of the compound into 300 μL of assay buffer. A further 3× dilution occurred when transferring 50 μL/well of the compound plate to 100 μL/well in the cell plate. Cells were incubated with test compounds and dye for 30 minutes. […] The fluorescence change was measured 180 seconds after adding the agonist.

P2X7 [3] = biological target: T1, P2X7; experiment: Ca2+ flux (FLIPR) in 1321N1 cells expressing recombinant human P2X7 channel; settings: Table 3 (additional runs); 250 μM BzATP
Method: as §1, §2

[4] = P2X7, Table 3 (additional runs), 10 μM compound

Chain of recombinant rat P2X7 channel (Q64663 whole entry): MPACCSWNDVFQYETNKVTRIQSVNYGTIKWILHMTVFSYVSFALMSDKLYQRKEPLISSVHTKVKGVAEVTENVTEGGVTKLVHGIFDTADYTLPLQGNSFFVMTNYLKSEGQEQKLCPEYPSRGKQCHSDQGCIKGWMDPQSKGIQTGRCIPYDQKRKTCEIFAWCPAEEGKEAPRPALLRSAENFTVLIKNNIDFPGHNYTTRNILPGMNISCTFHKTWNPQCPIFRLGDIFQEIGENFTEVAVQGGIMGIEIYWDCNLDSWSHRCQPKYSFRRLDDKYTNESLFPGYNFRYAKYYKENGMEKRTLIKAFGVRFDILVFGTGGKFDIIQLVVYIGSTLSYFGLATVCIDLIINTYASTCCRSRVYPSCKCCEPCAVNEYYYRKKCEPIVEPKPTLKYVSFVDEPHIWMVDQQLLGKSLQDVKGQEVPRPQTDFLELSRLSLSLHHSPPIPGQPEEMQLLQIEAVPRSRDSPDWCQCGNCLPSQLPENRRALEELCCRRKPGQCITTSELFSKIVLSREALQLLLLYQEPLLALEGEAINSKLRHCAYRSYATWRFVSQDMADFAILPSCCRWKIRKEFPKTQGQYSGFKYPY
T1 sequence (Q99572 whole entry): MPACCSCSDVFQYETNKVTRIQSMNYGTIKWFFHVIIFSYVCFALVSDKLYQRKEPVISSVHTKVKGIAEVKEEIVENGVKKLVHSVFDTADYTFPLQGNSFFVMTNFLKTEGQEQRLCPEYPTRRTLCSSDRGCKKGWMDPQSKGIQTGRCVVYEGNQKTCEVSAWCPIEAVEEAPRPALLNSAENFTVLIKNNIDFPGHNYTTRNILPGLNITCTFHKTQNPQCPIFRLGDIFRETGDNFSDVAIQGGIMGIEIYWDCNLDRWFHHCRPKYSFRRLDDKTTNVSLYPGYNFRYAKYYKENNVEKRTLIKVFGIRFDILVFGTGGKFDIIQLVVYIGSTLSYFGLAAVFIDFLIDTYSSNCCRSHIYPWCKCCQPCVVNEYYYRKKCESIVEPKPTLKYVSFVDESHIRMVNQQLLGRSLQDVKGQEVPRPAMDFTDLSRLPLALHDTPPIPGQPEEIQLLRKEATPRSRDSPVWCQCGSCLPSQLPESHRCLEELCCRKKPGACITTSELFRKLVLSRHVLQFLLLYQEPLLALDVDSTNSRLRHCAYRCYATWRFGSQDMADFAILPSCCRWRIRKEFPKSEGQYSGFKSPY

| remaining activity at 10 µM (P2X7 [1]; [4]) [%] | IC50 [2] [µM] | IC50 (P2X7 [3]) [µM] | remaining activity at 10 µM (P2X7 [1]; P2X7, Table 2, 10 μM compound) [%] | PBMC 10 μM (% control) (P2X7 [1]; 10 μM compound) | SMILES |
| --- | --- | --- | --- | --- | --- |
|  | 0.2 |  |  |  | Cc1nc2c(c(-c3ccn[nH]3)n1)C[C@@H](C)N(C(=O)c1cccc(F)c1Cl)C2 (single isomer, unassigned) [Example 144, (R*)-(2-chloro-3-fluorophenyl)(2,6-dimethyl-4-(1H-pyrazol-5-yl)-5,6-dihydropyrido[3,4-d]pyrimidin-7(8H)-yl)methanone] |
|  | 12.4 | 9 |  |  | Cc1nc2c(c(-c3ccn[nH]3)n1)C[C@@H](C)N(C(=O)c1cccc(OC(F)(F)F)c1)C2 (single isomer, unassigned) [Example 141, (R*)-(2,6-dimethyl-4-(1H-pyrazol-5-yl)-5,6-dihydropyrido[3,4-d]pyrimidin-7(8H)-yl)(3-(trifluoromethoxy)phenyl)methanone] |
| 2 | 1.46 |  |  |  | Cc1nc2c(c(-c3ccn[nH]3)n1)CC(C)N(C(=O)c1cccc(OC(F)(F)F)c1F)C2 (centres unmarked) [Example 139, (2,6-dimethyl-4-(1H-pyrazol-5-yl)-5,6-dihydropyrido[3,4-d]pyrimidin-7(8H)-yl)(2-fluoro-3-(trifluoromethoxy)phenyl)methanone] |
|  |  |  | -0.5 | −0.5 | C[C@H]1c2ncnc(-c3ccn[nH]3)c2CCN1C(=O)c1cccc(C(F)(F)F)c1Cl (single isomer, unassigned) [Example 114, (S*)-(2-chloro-3-(trifluoromethyl)phenyl)(8-methyl-4-(1H-pyrazol-5-yl)-5,6-dihydropyrido[3,4-d]pyrimidin-7(8H)-yl)methanone] |
| 73.9 |  |  |  |  | Cc1nc2c(c(-c3ccn[nH]3)n1)C[C@H](C)N(C(=O)c1cccc(OC(F)(F)F)c1)C2 (single isomer, unassigned) [Example 142, (S*)-(2,6-dimethyl-4-(1H-pyrazol-5-yl)-5,6-dihydropyrido[3,4-d]pyrimidin-7(8H)-yl)(3-(trifluoromethoxy)phenyl)methanone] |
|  |  |  | 5 | 5.0 | Cc1nc2c(c(-c3ccn[nH]3)n1)C[C@@H](C)N(C(=O)c1cccc(C(F)(F)F)c1Cl)C2 (single isomer, unassigned) [Example 58, (6R*)-7-{[2-Chloro-3-(trifluoromethyl)phenyl]carbonyl}-2,6-dimethyl-4-(1H-pyrazol-5-yl)-5,6,7,8-tetrahydropyrido[3,4-d]pyrimidine] |
|  |  |  | 38.2 |  | COCCn1ccc(-c2nc(C)nc3c2C[C@H](C)N(C(=O)c2cccc(C(F)(F)F)c2Cl)C3)n1 (single isomer, unassigned) [Example 127, (S*)-(2-chloro-3-(trifluoromethyl)phenyl)(4-(1-(2-methoxyethyl)-1H-pyrazol-3-yl)-2,6-dimethyl-5,6-dihydropyrido[3,4-d]pyrimidin-7(8H)-yl)methanone] |

Further lines, the molecule ahead of its results:

| SMILES | remaining activity at 10 µM (P2X7 [1]; [4]) [%] | IC50 [2] [µM] | IC50 (P2X7 [3]) [µM] | remaining activity at 10 µM (P2X7 [1]; P2X7, Table 2, 10 μM compound) [%] | PBMC 10 μM (% control) (P2X7 [1]; 10 μM compound) |
| --- | --- | --- | --- | --- | --- |
| Cc1nc2c(c(-c3ccn[nH]3)n1)CC(C)N(C(=O)c1cccc(F)c1Cl)C2 (centres unmarked) [Example 143, (2-chloro-3-fluorophenyl)(2,6-dimethyl-4-(1H-pyrazol-5-yl)-5,6-dihydropyrido[3,4-d]pyrimidin-7(8H)-yl)methanone] | 11.9 | 0.0522 |  |  |  |
| Cc1nc2c(c(-c3ccn[nH]3)n1)CC(C)N(C(=O)c1cccc(OC(F)(F)F)c1)C2 (centres unmarked) [Example 140, (2,6-dimethyl-4-(1H-pyrazol-5-yl)-5,6-dihydropyrido[3,4-d]pyrimidin-7(8H)-yl)(3-(trifluoromethoxy)phenyl)methanone] | 52.5 | 47.3 | > 10 |  |  |
| COc1cccc(C(=O)N2Cc3nc(C)nc(-c4ccn[nH]4)c3CC2C)c1C (centres unmarked) [Example 146, (2,6-dimethyl-4-(1H-pyrazol-5-yl)-5,6-dihydropyrido[3,4-d]pyrimidin-7(8H)-yl)(3-methoxy-2-methylphenyl)methanone] | -0.8 | > 10 | 1.06 |  |  |
| Cc1nc2c(c(-c3ccn[nH]3)n1)C[C@H](C)N(C(=O)c1ccc(Cl)c(F)c1Cl)C2 [Example 72, (S)-(2,4-dichloro-3-fluorophenyl)(2,6-dimethyl-4-(1H-pyrazol-5-yl)-5,6-dihydropyrido[3,4-d]pyrimidin-7(8H)-yl)methanone] |  |  |  | -2.6 | −2.6 |
| Cc1nc2c(c(-c3ccn[nH]3)n1)C[C@@H](C)N(C(=O)c1ccc(F)cc1F)C2 (single isomer, unassigned) [Example 94, (R*)-(2,4-difluorophenyl)(2,6-dimethyl-4-(1H-pyrazol-5-yl)-5,6-dihydropyrido[3,4-d]pyrimidin-7(8H)-yl)methanone] |  |  |  | 71.8 |  |
| Cc1nc2c(c(-c3ccn[nH]3)n1)C[C@@H](C)N(C(=O)c1ccc(F)c(Cl)c1Cl)C2 (single isomer, unassigned) [Example 81, (R*)-(2,3-dichloro-4-fluorophenyl)(2,6-dimethyl-4-(1H-pyrazol-5-yl)-5,6-dihydropyrido[3,4-d]pyrimidin-7(8H)-yl)methanone] |  |  |  | 21 | 21.0 |
| Cc1nc2c(c(-c3ccn[nH]3)n1)C[C@H](C)N(C(=O)c1cccc(C(F)(F)F)c1Cl)C2 (single isomer, unassigned) [Example 59, (6S*)-7-{[2-Chloro-3-(trifluoromethyl)phenyl]carbonyl}-2,6-dimethyl-4-(1H-pyrazol-5-yl)-5,6,7,8-tetrahydropyrido[3,4-d]pyrimidine] |  |  |  | 2.8 | 2.8 |
| Cc1nc2c(c(-c3ccn[nH]3)n1)C[C@H](C)N(C(=O)c1cccc(F)c1Cl)C2 (single isomer, unassigned) [Example 145, (S*)-(2-chloro-3-fluorophenyl)(2,6-dimethyl-4-(1H-pyrazol-5-yl)-5,6-dihydropyrido[3,4-d]pyrimidin-7(8H)-yl)methanone] | 67.4 |  |  |  |  |
| CCc1nc2c(c(-c3ccn[nH]3)n1)C[C@@H](C)N(C(=O)c1cccc(C(F)(F)F)c1Cl)C2 (single isomer, unassigned) [Example 99, (R*)-(2-chloro-3-(trifluoromethyl)phenyl)(2-ethyl-6-methyl-4-(1H-pyrazol-5-yl)-5,6-dihydropyrido[3,4-d]pyrimidin-7(8H)-yl)methanone] |  |  |  | 16.4 |  |
| C[C@@H]1c2ncnc(-c3ccn[nH]3)c2CCN1C(=O)c1ccc(F)c(C(F)(F)F)c1Cl (single isomer, unassigned) [Example 116, (R*)-(2-chloro-4-fluoro-3-(trifluoromethyl)phenyl)(8-methyl-4-(1H-pyrazol-5-yl)-5,6-dihydropyrido[3,4-d]pyrimidin-7(8H)-yl)methanone] |  |  |  | -4.4 | −4.4 |
| C[C@H]1c2ncnc(-c3ccn[nH]3)c2CCN1C(=O)c1ccc(F)c(Cl)c1Cl (single isomer, unassigned) [Example 120, (S*)-(2,3-dichloro-4-fluorophenyl)(8-methyl-4-(1H-pyrazol-5-yl)-5,6-dihydropyrido[3,4-d]pyrimidin-7(8H)-yl)methanone] |  |  |  | 2.9 | 2.9 |
| COCCn1ccc(-c2nc(C)nc3c2C[C@@H](C)N(C(=O)c2cccc(C(F)(F)F)c2Cl)C3)n1 (single isomer, unassigned) [Example 128, (R*)-(2-chloro-3-(trifluoromethyl)phenyl)(4-(1-(2-methoxyethyl)-1H-pyrazol-3-yl)-2,6-dimethyl-5,6-dihydropyrido[3,4-d]pyrimidin-7(8H)-yl)methanone] |  |  |  | 7.3 | 7.3 |
| Cc1nc2c(c(-c3ccn[nH]3)n1)C[C@H](C)N(C(=O)c1ccc(F)c(Cl)c1Cl)C2 (single isomer, unassigned) [Example 82, (S*)-(2,3-dichloro-4-fluorophenyl)(2,6-dimethyl-4-(1H-pyrazol-5-yl)-5,6-dihydropyrido[3,4-d]pyrimidin-7(8H)-yl)methanone] |  |  |  | -1 | −1.0 |
| C[C@@H]1c2ncnc(-c3ccn[nH]3)c2CCN1C(=O)c1ccc(Cl)c(F)c1Cl (single isomer, unassigned) [Example 122, (R*)-(2,4-dichloro-3-fluorophenyl)(8-methyl-4-(1H-pyrazol-5-yl)-5,6-dihydropyrido[3,4-d]pyrimidin-7(8H)-yl)methanone] |  |  |  | 4.1 | 4.1 |
